Data on five compounds can be found in patent US10829520B2, “Beta-hairpin peptidomimetics” (POLYPHOR AG, priority 2015, dated 2020).

Holding throughout (format): cell-based
One data set relates to Escherichia coli 926415. Particulars: 926415.
The test system of data set [1] is Escherichia coli ATCC 25922. The following applies: ATCC 25922. In outline:
(§1)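 Minimal inhibitory concentrations were recorded in μg/mL after the strains grew 18-20 hours at 35° C with two-fold serial peptide dilutions. The medium was Mueller-Hinton II (cation-adjusted) with 0.002% Polysorbate 80, and the inoculum was about 10^6 CFU/mL.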

Data set [2] relates to Acinetobacter baumannii DSM 30008. Particulars: DSM 30008. In outline:
as §1

Data set [3] deals with Klebsiella pneumoniae SSI #3010. The following applies: SSI #3010. The procedure, abridged:
as §1

Data set [4] has as its system Klebsiella pneumoniae 968733. The following applies: 968733.
Data set [5] deals with Acinetobacter baumannii 872842. The following applies: 872842.
In data set [6] the test system is Pseudomonas aeruginosa ATCC 27853. The following applies: ATCC 27853. The procedure, abridged: as §1
Data set [7] deals with human red blood cells (hRBC). Put plainly: Hemolysis of human red blood cells. Particulars: red cells of human, 1 h, 100 μg/mL. In outline:
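Each peptide was tested at a single concentration, 100 μg/mL. Erythrocytes (20% v/v) were incubated 1 h at 37° C. under shaking at 300 rpm, centrifuged, and released hemoglobin measured at OD540. Controls were PBS containing 0.001% acetic acid (0%) and Triton X-100 (100%).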

Where a SMILES comes first, the peptide text is derived from it. Bridges are numbered along the chain shown (N, C = ends). [ ]: non-standard residue; d: D form. dHyp = O=C(O)[C@H]1C[C@H](O)CN1; Pen = CC(C)(S)[C@H](N)C(=O)O; Tle = CC(C)(C)[C@H](N)C(=O)O; NMeC = CN[C@@H](CS)C(=O)O; dDab = NCC[C@@H](N)C(=O)O; Nle = CCCC[C@H](N)C(=O)O; Orn = NCCC[C@H](N)C(=O)O; Dab = NCC[C@H](N)C(=O)O; Dap = NC[C@H](N)C(=O)O

As to `CCCC[C@@H]1NC(=O)[C@@H]2CCCN2C(=O)[C@H]2CCCN2C(=O)[C@H](CO)NC(=O)[C@H](CO)NC(=O)[C@H](C(C)(C)C)NC(=O)[C@H](CCN)NC(=O)[C@H](Cc2c[nH]c3ccccc23)NC(=O)[C@@H](N)CSSC[C@@H](C(=O)N[C@@H](CCN)C(=O)N[C@H](CCN)C(=O)N[C@H]2CCNC(=O)[C@H]([C@@H](C)O)NC(=O)[C@H](CCN)NC(=O)[C@H](CCN)NC(=O)[C@H](CC(C)C)NC(=O)[C@@H](Cc3ccccc3)NC(=O)[C@H](CCN)NC2=O)NC(=O)[C@H](CCCN)NC(=O)[C@H](CCN)NC(=O)[C@H](Cc2ccc(O)cc2)NC(=O)[C@H](CO)NC1=O` [Ex. 205] (H-CW[Dab][Tle]SS[dP]P[Nle]SY[Dab][Orn]C[Dab][dDab][Dab][Dab][dF]L[Dab][Dab]T; disulfide 1-14; lactam 17-C), the “Escherichia coli 926415 MIC” value with Escherichia coli 926415 stood at 0.5 µg/mL. The “Escherichia coli ATCC 25922 MIC” value in data set [1] came to 0.25 µg/mL. In addition, in data set [2], the “Acinetobacter baumannii DSM 30008 MIC” value is 2 µg/mL. For the same compound, the “Klebsiella pneumoniae SSI #3010 MIC” value in data set [3] was 2 µg/mL. Besides, the “Klebsiella pneumoniae 968733 MIC” value in data set [4] was 2 µg/mL. Also, the “Acinetobacter baumannii 872842 MIC” value in data set [5] is 0.5 µg/mL. Moreover, the “Pseudomonas aeruginosa ATCC 27853 MIC” value in data set [6] turned out to be 0.25 µg/mL. Besides, the “Hemolysis at 100 μg/mL” value in data set [7] is listed as under 1%.

`CCCC[C@@H]1NC(=O)[C@@H]2CCCN2C(=O)[C@H]2CCCN2C(=O)[C@H](CO)NC(=O)[C@H](Cc2ccc(O)cc2)NC(=O)[C@H](C(C)(C)C)NC(=O)[C@H](CCN)NC(=O)[C@H](Cc2c[nH]c3ccccc23)NC(=O)[C@@H](NC)CSSC[C@@H](C(=O)N[C@H](CCN)C(=O)N[C@H]2CCNC(=O)[C@H]([C@@H](C)O)NC(=O)[C@H](CCN)NC(=O)[C@H](CCN)NC(=O)[C@H](CC(C)C)NC(=O)[C@@H](CC(C)C)NC(=O)[C@H](CCN)NC2=O)NC(=O)[C@H](CCCN)NC(=O)[C@H](CCN)NC(=O)[C@H](Cc2ccc(O)cc2)NC(=O)[C@H](CO)NC1=O` [Ex. 207] (H-[NMeC]W[Dab][Tle]YS[dP]P[Nle]SY[Dab][Orn]C[dDab][Dab][Dab][dL]L[Dab][Dab]T; disulfide 1-14; lactam 16-C): the “Escherichia coli 926415 MIC” value in the data set with Escherichia coli 926415 is 0.25 µg/mL. Also, the “Escherichia coli ATCC 25922 MIC” value in data set [1] was 0.125 µg/mL. In addition, in data set [2], the “Acinetobacter baumannii DSM 30008 MIC” value was determined as 2 µg/mL. Also, in data set [3], the “Klebsiella pneumoniae SSI #3010 MIC” value was determined as 0.125 µg/mL. In data set [4], the “Klebsiella pneumoniae 968733 MIC” value is 0.5 µg/mL. The “Acinetobacter baumannii 872842 MIC” value in data set [5] was 1 µg/mL. In data set [6], the “Pseudomonas aeruginosa ATCC 27853 MIC” value was 2 µg/mL. Also, the “Hemolysis at 100 μg/mL” value in data set [7] is listed as 1%.

As for `CC(C)C[C@@H]1NC(=O)[C@@H](CC(C)C)NC(=O)[C@H](CCN)NC(=O)[C@@H](NC(=O)[C@@H](CCN)NC(=O)[C@@H]2CSSC(C)(C)[C@H](N)C(=O)N[C@@H](Cc3c[nH]c4ccccc34)C(=O)N[C@@H](CCN)C(=O)N[C@@H](C(C)C)C(=O)N[C@@H](CO)C(=O)N[C@@H](CO)C(=O)N3C[C@@H](O)C[C@@H]3C(=O)N3CCC[C@H]3C(=O)N[C@@H](CC(C)C)C(=O)N[C@@H](CO)C(=O)N[C@@H](Cc3ccc(O)cc3)C(=O)N[C@@H](CCN)C(=O)N[C@@H](CCCN)C(=O)N2)CCNC(=O)[C@H]([C@@H](C)O)NC(=O)[C@H](CCN)NC(=O)[C@H](CCN)NC1=O` [Ex. 208] (H-[Pen]W[Dab]VSS[dHyp]PLSY[Dab][Orn]C[dDab][Dab][Dab][dL]L[Dab][Dab]T; disulfide 1-14; lactam 16-C), the “Escherichia coli 926415 MIC” value in the data set with Escherichia coli 926415 was determined as 0.5 µg/mL. Moreover, in data set [1], the “Escherichia coli ATCC 25922 MIC” value was found to be 0.25 µg/mL. In addition, the “Acinetobacter baumannii DSM 30008 MIC” value in data set [2] stood at 1 µg/mL. For the same compound, in data set [3], the “Klebsiella pneumoniae SSI #3010 MIC” value was 1 µg/mL. For the same compound, the “Klebsiella pneumoniae 968733 MIC” value in data set [4] amounted to 8 µg/mL. Also, the “Acinetobacter baumannii 872842 MIC” value in data set [5] was 2 µg/mL. In addition, the “Pseudomonas aeruginosa ATCC 27853 MIC” value in data set [6] stood at 2 µg/mL. Moreover, the “Hemolysis at 100 μg/mL” value in data set [7] is on record as under 1%.

As for `CC(C)C[C@@H]1NC(=O)[C@@H](CC(C)C)NC(=O)[C@H](CCN)NC(=O)[C@@H](NC(=O)[C@@H](CCN)NC(=O)[C@@H]2CSSC[C@H](N)C(=O)N[C@@H](Cc3c[nH]c4ccccc34)C(=O)N[C@@H](CCN)C(=O)N[C@@H](C(C)C)C(=O)N[C@@H]([C@@H](C)O)C(=O)N[C@@H](Cc3ccc(O)cc3)C(=O)N3CCC[C@@H]3C(=O)N3CCC[C@H]3C(=O)N[C@@H](CC(C)C)C(=O)N[C@@H](CO)C(=O)N[C@@H](Cc3ccc(O)cc3)C(=O)N[C@@H](CCN)C(=O)N[C@@H](CCN)C(=O)N2)CCNC(=O)[C@H]([C@@H](C)O)NC(=O)[C@H](CCN)NC(=O)[C@H](CCN)NC1=O` [Ex. 209] (H-CW[Dab]VTY[dP]PLSY[Dab][Dab]C[dDab][Dab][Dab][dL]L[Dab][Dab]T; disulfide 1-14; lactam 16-C), the “Escherichia coli 926415 MIC” value in the data set with Escherichia coli 926415 is 0.25 µg/mL. Moreover, the “Escherichia coli ATCC 25922 MIC” value in data set [1] turned out to be 0.125 µg/mL. In addition, in data set [2], the “Acinetobacter baumannii DSM 30008 MIC” value worked out at 0.5 µg/mL. Moreover, the “Klebsiella pneumoniae SSI #3010 MIC” value in data set [3] was determined as 0.25 µg/mL. Besides, the “Klebsiella pneumoniae 968733 MIC” value in data set [4] worked out at 0.5 µg/mL. Besides, the “Acinetobacter baumannii 872842 MIC” value in data set [5] turned out to be 0.5 µg/mL. In addition, the “Pseudomonas aeruginosa ATCC 27853 MIC” value in data set [6] amounted to 1 µg/mL. The “Hemolysis at 100 μg/mL” value in data set [7] is listed as 3%.

For the compound `CCCC[C@@H]1NC(=O)[C@@H]2CCCN2C(=O)[C@H]2CCCN2C(=O)[C@H](CO)NC(=O)[C@H](C)NC(=O)[C@H](C(C)(C)C)NC(=O)[C@@H]2CCC(=O)NCC[C@H](NC(=O)[C@H](Cc3ccc(O)cc3)NC(=O)[C@H](CN)NC1=O)C(=O)N[C@@H](CCCN)C(=O)N[C@H](C(=O)N[C@H](CCN)C(=O)N[C@H]1CCNC(=O)[C@H]([C@@H](C)O)NC(=O)[C@H](CCN)NC(=O)[C@H](CCN)NC(=O)[C@H](CC(C)C)NC(=O)[C@@H](Cc3ccccc3)NC(=O)[C@H](CCN)NC1=O)CSSC[C@H](N)C(=O)N[C@@H](Cc1c[nH]c3ccccc13)C(=O)N2` [Ex. 210] (H-CWE[Tle]AS[dP]P[Nle][Dap]Y[Dab][Orn]C[dDab][Dab][Dab][dF]L[Dab][Dab]T; disulfide 1-14; lactam 3-12, 16-C), the “Escherichia coli 926415 MIC” value with Escherichia coli 926415 worked out at 0.5 µg/mL. In data set [1], the “Escherichia coli ATCC 25922 MIC” value was found to be 0.25 µg/mL. The “Acinetobacter baumannii DSM 30008 MIC” value in data set [2] was determined as 1 µg/mL. The “Klebsiella pneumoniae SSI #3010 MIC” value in data set [3] was found to be 0.5 µg/mL. The “Klebsiella pneumoniae 968733 MIC” value in data set [4] is 4 µg/mL. Moreover, the “Acinetobacter baumannii 872842 MIC” value in data set [5] was determined as 2 µg/mL. Further, the “Pseudomonas aeruginosa ATCC 27853 MIC” value in data set [6] was found to be 1 µg/mL. In addition, the “Hemolysis at 100 μg/mL” value in data set [7] is recorded as 1%.
